Experimental data reported in US10800791B2, “Triazole ACC inhibitors and uses thereof” (Gilead Apollo, LLC, priority 2015, dated 2020).
Values after ≈ are worked out from the molar mass of the structure shown. Like-named read-outs stand apart in the source and are kept apart here.

Columns and labels:
Diplodia maydis (Dm) = assay: Growth inhibition assay of fungal pathogens, Dm; format: cell-based; settings: Stenocarpella maydis, 48 h
Summary of the method: (§1)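 Read-out: OD600 plus visual rating at 24 and 48 h, blank (media + 2% DMSO) subtracted. Percent inhibition was derived at 48 h versus the 2% DMSO control. Spores were grown in 17% V8 broth with compound at 50/10/2 or 2/0.4/0.08 ppm final.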

Botrtyis cinerea (Bc) = assay: Growth inhibition assay of fungal pathogens, Bc; format: cell-based; settings: 48 h
Summary of the method: as §1

Rhizoctonia solani (Rs) = assay: Growth inhibition assay of fungal pathogens, Rs; format: cell-based; settings: 48 h
human (hACC2) = human (hACC2) (Homo sapiens, UniProt O00763); assay: In vitro ACC inhibition assay (ADP-Glo), hACC2; format: biochemical; settings: 5 nM ACC2, 20 μM ATP, 20 μM acetyl-CoA
Chain of human (hACC2) (O00763 whole entry): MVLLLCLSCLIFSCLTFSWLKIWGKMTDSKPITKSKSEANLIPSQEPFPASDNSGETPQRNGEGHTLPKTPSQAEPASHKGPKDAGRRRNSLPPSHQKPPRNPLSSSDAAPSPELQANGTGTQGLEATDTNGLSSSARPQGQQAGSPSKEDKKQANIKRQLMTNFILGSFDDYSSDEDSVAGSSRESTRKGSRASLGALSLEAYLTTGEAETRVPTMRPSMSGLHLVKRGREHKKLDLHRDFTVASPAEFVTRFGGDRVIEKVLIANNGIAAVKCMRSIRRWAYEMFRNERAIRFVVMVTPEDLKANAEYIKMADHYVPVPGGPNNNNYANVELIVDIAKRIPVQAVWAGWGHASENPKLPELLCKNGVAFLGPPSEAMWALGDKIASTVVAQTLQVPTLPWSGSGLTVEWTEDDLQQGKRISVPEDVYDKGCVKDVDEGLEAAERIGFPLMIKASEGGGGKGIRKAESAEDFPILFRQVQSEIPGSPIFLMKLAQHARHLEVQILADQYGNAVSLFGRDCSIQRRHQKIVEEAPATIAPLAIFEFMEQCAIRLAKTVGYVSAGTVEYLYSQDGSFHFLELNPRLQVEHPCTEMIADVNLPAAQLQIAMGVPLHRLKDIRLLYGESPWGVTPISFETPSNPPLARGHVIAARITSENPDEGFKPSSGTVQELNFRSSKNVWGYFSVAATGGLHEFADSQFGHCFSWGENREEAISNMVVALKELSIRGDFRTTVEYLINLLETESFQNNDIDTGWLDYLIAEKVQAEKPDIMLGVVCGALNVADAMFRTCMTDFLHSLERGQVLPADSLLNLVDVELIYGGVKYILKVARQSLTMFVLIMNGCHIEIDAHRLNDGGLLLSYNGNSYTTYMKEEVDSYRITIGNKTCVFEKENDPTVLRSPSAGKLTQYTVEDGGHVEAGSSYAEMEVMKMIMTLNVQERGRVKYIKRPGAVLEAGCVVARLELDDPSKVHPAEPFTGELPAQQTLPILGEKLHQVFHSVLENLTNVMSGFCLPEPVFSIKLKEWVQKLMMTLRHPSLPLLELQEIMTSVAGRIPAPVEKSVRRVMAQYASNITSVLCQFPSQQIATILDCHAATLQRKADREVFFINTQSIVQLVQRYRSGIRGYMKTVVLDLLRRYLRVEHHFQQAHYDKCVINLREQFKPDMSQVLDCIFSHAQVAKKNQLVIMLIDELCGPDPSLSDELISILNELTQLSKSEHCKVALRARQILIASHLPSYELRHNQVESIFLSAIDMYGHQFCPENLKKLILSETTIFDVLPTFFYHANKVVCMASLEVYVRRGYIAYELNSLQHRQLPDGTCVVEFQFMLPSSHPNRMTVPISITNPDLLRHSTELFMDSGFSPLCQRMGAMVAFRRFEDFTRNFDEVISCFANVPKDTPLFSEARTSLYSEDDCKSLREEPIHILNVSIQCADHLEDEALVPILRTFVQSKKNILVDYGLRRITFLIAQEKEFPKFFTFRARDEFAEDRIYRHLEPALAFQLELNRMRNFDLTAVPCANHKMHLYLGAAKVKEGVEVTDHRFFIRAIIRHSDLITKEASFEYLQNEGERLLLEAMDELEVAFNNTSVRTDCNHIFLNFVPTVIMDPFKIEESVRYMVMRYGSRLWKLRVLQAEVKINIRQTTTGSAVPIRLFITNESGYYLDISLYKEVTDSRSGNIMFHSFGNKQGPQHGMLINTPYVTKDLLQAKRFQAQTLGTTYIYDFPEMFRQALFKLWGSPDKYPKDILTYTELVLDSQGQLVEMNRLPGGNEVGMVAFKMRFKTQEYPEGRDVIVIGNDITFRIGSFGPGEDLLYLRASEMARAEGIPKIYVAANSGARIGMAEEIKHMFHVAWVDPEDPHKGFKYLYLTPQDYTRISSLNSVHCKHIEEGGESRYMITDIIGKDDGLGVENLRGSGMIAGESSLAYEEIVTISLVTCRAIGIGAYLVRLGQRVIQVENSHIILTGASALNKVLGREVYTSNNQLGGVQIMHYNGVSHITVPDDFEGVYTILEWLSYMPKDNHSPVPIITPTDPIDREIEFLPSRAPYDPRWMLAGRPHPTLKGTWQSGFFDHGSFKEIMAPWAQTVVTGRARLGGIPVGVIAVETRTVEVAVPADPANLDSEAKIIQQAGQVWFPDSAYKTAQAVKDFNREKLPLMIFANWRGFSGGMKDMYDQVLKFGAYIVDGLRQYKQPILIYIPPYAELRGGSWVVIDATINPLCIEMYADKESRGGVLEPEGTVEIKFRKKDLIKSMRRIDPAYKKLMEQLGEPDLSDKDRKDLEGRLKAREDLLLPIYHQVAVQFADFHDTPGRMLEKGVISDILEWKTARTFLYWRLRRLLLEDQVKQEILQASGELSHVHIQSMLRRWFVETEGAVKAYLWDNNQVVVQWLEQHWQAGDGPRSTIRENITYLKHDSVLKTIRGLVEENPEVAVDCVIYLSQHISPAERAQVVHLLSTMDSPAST
Method: The detailed procedure is as follows. […] 10 μL ADP glo reagent was added. […] 20 μL kinase detection reagent was added.

fungal (fACC2) = fungal (fACC2) (UniProt Q00955); settings: read-out: fACC2 (in vitro ACC2 Inhibition Assay, IC50), ADP-Glo, 5 nM ACC2, 20 μM ATP, 20 μM acetyl-CoA
Chain of fungal (fACC2) (Q00955 whole entry): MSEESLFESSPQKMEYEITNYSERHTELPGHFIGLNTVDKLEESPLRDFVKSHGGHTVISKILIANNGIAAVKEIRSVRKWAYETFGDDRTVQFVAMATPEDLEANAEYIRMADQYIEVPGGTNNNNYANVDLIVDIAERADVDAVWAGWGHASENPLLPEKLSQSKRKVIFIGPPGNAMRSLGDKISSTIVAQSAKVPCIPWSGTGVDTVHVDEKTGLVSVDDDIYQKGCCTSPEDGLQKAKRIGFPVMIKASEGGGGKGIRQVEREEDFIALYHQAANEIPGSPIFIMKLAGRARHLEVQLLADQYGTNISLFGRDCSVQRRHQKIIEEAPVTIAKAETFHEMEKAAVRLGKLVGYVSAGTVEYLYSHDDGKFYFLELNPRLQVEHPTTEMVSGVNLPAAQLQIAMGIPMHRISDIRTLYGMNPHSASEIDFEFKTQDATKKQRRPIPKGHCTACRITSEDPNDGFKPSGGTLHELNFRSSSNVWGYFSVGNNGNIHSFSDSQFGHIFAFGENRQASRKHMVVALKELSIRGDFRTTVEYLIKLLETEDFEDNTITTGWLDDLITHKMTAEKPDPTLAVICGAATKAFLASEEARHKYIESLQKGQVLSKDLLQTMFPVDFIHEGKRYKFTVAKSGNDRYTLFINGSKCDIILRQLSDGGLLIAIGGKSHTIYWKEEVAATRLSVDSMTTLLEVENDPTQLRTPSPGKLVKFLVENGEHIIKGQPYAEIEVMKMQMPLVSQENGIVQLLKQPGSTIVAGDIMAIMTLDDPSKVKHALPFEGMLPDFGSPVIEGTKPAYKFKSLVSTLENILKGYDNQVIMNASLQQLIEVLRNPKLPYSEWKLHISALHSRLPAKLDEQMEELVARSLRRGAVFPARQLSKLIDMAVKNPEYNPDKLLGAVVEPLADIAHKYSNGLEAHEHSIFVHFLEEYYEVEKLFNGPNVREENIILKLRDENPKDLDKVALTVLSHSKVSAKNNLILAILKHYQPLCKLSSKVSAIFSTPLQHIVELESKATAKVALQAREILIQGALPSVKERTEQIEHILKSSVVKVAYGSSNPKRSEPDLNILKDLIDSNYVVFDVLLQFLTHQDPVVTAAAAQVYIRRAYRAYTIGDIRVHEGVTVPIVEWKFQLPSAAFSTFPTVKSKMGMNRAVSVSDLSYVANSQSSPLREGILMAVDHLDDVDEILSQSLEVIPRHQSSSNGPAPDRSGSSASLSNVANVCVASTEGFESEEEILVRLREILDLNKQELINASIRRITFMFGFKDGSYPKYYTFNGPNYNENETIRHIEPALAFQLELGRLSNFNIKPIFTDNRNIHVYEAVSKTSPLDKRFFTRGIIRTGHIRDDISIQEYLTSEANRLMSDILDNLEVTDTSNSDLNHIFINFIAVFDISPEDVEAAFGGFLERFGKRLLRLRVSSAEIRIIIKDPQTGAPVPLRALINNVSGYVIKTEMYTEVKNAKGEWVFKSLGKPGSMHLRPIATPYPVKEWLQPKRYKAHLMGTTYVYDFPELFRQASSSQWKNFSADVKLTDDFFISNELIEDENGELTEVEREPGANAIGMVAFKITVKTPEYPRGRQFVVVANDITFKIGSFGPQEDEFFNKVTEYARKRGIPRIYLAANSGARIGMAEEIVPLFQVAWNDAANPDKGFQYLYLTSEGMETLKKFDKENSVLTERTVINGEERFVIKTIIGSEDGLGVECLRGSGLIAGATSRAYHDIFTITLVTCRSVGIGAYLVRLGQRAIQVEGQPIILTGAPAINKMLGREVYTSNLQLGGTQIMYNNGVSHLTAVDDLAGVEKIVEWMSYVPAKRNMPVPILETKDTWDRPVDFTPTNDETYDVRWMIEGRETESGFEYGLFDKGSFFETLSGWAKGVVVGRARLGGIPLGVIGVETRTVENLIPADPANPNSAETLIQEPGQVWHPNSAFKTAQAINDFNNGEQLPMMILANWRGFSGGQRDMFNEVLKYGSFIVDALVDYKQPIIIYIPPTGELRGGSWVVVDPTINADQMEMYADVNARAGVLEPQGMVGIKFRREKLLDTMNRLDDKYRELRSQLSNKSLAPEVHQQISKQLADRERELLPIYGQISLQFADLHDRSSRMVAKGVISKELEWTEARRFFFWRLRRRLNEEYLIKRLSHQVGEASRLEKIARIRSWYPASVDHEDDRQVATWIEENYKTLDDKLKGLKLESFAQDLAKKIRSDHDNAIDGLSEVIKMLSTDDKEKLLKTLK

C. albicans = assay: Antifungal Activity Assay (broth microtiter MIC), C. albicans; format: cell-based, Candida albicans; settings: Candida albicans, ATCC90028, 48 h
Summary of the method: (§2)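 Colonies from 24 h Sabouraud dextrose agar plates (35° C) are suspended in RPMI 1640+MOPS and diluted to give 2.5×10^3 CFU/mL in the wells. Plates are set up per CLSI M27-A3. Visual MIC is recorded at 48 h.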

[1] = test system: Fusarium virguliforme (Fv); assay: Growth inhibition assay of fungal pathogens, Fv; format: cell-based; settings: 48 h
Summary of the method: as §1

C. parapsilosis = assay: Antifungal Activity Assay (broth microtiter MIC), C. parapsilosis; format: cell-based, Candida parapsilosis; settings: Lodderomyces parapsilosis, ATCC22019, 48 h
Summary of the method: as §2

[2] = test system: Phytophthora capsici (Pc); assay: Growth inhibition assay of fungal pathogens, Pc; format: cell-based; settings: 48 h
Summary of the method: as §1

C. krusei = assay: Antifungal Activity Assay (broth microtiter MIC), C. krusei; format: cell-based, Candida krusei; settings: Pichia kudriavzevii, ATCC6258, 48 h
Summary of the method: as §2

[3] = Diplodia maydis, growth inhibition at 48 hours vs 2% DMSO control, read-out: Concentration at 90% Inhibition Dm
[4] = Diplodia maydis, growth inhibition vs 2% DMSO control at 48 hours, read-out: Concentration at 90% Inhibition Dm
[5] = Botrtyis cinerea, growth inhibition at 48 hours vs 2% DMSO control, read-out: Concentration at 90% Inhibition Bc
[6] = Botrtyis cinerea, growth inhibition vs 2% DMSO control at 48 hours, read-out: Concentration at 90% Inhibition Bc
[7] = mycelial plugs, growth inhibition at 48 hours vs 2% DMSO control, read-out: Concentration at 90% Inhibition Rs
[8] = mycelial plugs, growth inhibition vs 2% DMSO control at 48 hours, read-out: Concentration at 90% Inhibition Rs
[9] = Table 3a, ATCC 90028, 3 replicates, MIC recorded at 48 h, read-out: MIC, C. albicans ATCC 90028
[10] = Table 3b (additional results), ATCC 90028, 3 replicates, MIC recorded at 48 h, read-out: MIC, C. albicans ATCC 90028
[11] = growth inhibition at 48 hours vs 2% DMSO control, read-out: Concentration at 90% Inhibition Fv
[12] = growth inhibition vs 2% DMSO control at 48 hours, read-out: Concentration at 90% Inhibition Fv
[13] = Table 3a, ATCC 22019, 3 replicates, MIC recorded at 48 h, read-out: MIC, C. parapsilosis ATCC 22019
[14] = Table 3b (additional results), ATCC 22019, 3 replicates, MIC recorded at 48 h, read-out: MIC, C. parapsilosis ATCC 22019
[15] = growth inhibition at 48 hours vs 2% DMSO control, read-out: Concentration at 90% Inhibition Pc
[16] = growth inhibition vs 2% DMSO control at 48 hours, read-out: Concentration at 90% Inhibition Pc
[17] = Table 3a, ATCC 6258, 3 replicates, MIC recorded at 48 h, read-out: MIC, C. krusei ATCC 6258
[18] = Table 3b (additional results), ATCC 6258, 3 replicates, MIC recorded at 48 h, read-out: MIC, C. krusei ATCC 6258

Row | Compound | IC90 (Diplodia maydis (Dm); [3]) [µg/mL] | IC90 (Diplodia maydis (Dm); [4]) [µg/mL] | IC90 (Botrtyis cinerea (Bc); [5]) [µg/mL] | IC90 (Botrtyis cinerea (Bc); [6]) [µg/mL] | IC90 (Rhizoctonia solani (Rs); [7]) [µg/mL] | IC90 (Rhizoctonia solani (Rs); [8]) [µg/mL] | IC50 (human (hACC2); Table 2a) [nM] | IC50 (human (hACC2); Table 2b, additional results) [nM] | MIC (C. albicans; [9]) [µg/mL] | MIC (C. albicans; [10]) [µg/mL] | IC90 [1, 11] [µg/mL] | IC90 [1, 12] [µg/mL] | MIC (C. parapsilosis; [13]) [µg/mL] | MIC (C. parapsilosis; [14]) [µg/mL] | IC90 [2, 15] [µg/mL] | IC90 [2, 16] [µg/mL] | MIC (C. krusei; [17]) [µg/mL] | MIC (C. krusei; [18]) [µg/mL] | further results
1 | COc1ccc(F)cc1[C@H](Cn1c(=O)n(C(C)(C)C(N)=O)c(=O)c2c(C)c(-n3nccn3)sc21)OC1CCOCC1 [Compound I-1] | 2 (≈ 3.41 µM) | 2 (≈ 3.41 µM) | 2 (≈ 3.41 µM) | 2 (≈ 3.41 µM) | 2 (≈ 3.41 µM) | 10 (≈ 17 µM) | 5 to 10 | 5 to 10 | 0.25 to 1 (≈ 0.426 to 1.7 µM) | 0.25 to 1 (≈ 0.426 to 1.7 µM) | 2 (≈ 3.41 µM) | 2 (≈ 3.41 µM) | 1.1 to 2 (≈ 1.88 to 3.41 µM) | 2.01 to 4 (≈ 3.43 to 6.82 µM) | 10 (≈ 17 µM) | > 50 | 0.25 to 1 (≈ 0.426 to 1.7 µM) | 0.25 to 1 (≈ 0.426 to 1.7 µM) | IC50 (fungal (fACC2); Table 2a): 1 to 5 nM; IC50 (fungal (fACC2); Table 2b, additional results): 1 to 5 nM
2 | COc1ccc(F)cc1[C@H](Cn1c(=O)n(C(C)(C)C(=O)N2CC(O)C2)c(=O)c2c(C)c(-n3nccn3)sc21)OC1CCOCC1 [Compound I-26, (R)-1-(2-(5-fluoro-2-methoxyphenyl)-2-((tetrahydro-2H-pyran-4-yl)oxy)ethyl)-3-(1-(3-hydroxyazetidin-1-yl)-2-methyl-1-oxopropan-2-yl)-5-methyl-6-(2H-1,2,3-triazol-2-yl)thieno[2,3-d]pyrimidine-2,4(1H,3H)-dione] | 10 (≈ 15.6 µM) | > 50 | 2 (≈ 3.11 µM) | 2 (≈ 3.11 µM) | 10 (≈ 15.6 µM) | > 50 | 10 to 40 | 10 to 40 | 2.1 to 4 (≈ 3.27 to 6.22 µM) | 1.01 to 2 (≈ 1.57 to 3.11 µM) | 2 (≈ 3.11 µM) | 2 (≈ 3.11 µM) | 2.1 to 4 (≈ 3.27 to 6.22 µM) | 1.01 to 2 (≈ 1.57 to 3.11 µM) | > 50 | > 50 | 2.1 to 4 (≈ 3.27 to 6.22 µM) | 1.01 to 2 (≈ 1.57 to 3.11 µM) | 
3 | COc1ccc(F)cc1[C@H](Cn1c(=O)n(C(C)(C)C(N)=O)c(=O)c2c(C)c(-n3nccn3)sc21)OC1CCC(=O)CC1 [Compound I-31, (R)-2-(1-(2-(5-fluoro-2-methoxyphenyl)-2-((4-oxocyclo-hexyl)oxy)ethyl)-5-methyl-2,4-dioxo-6-(2H-1,2,3-triazol-2-yl)-1,4-dihydrothieno[2,3-d]pyrimidin-3(2H)-yl)-2-methylpropanamide] | 2 (≈ 3.34 µM) | 10 (≈ 16.7 µM) | 0.4 (≈ 0.668 µM) | 0.4 (≈ 0.668 µM) | 2 (≈ 3.34 µM) | 2 (≈ 3.34 µM) | 5 to 10 | 5 to 10 | 0.25 to 1 (≈ 0.418 to 1.67 µM) | 0.25 to 1 (≈ 0.418 to 1.67 µM) | 10 (≈ 16.7 µM) | > 50 | 1.1 to 2 (≈ 1.84 to 3.34 µM) | 2.01 to 4 (≈ 3.36 to 6.68 µM) | > 50 | > 50 | 0.25 to 1 (≈ 0.418 to 1.67 µM) | 0.25 to 1 (≈ 0.418 to 1.67 µM) | 
4 | COc1ccc(F)cc1[C@H](Cn1c(=O)n(C(C)(C)C(=O)NC(C)C)c(=O)c2c(C)c(-n3nccn3)sc21)OC1CCC(=O)CC1 [Compound I-32, (R)-2-(1-(2-(5-fluoro-2-methoxyphenyl)-2-((4-oxocyclo-hexyl)oxy)ethyl)-5-methyl-2,4-dioxo-6-(2H-1,2,3-triazol-2-yl)-1,4-dihydro-thieno[2,3-d]pyrimidin-3(2H)-yl)-N-isopropyl-2-methylpropanamide] |  |  |  |  |  |  | 5 to 10 | 5 to 10 |  |  |  |  |  |  |  |  |  |  | IC90 (Diplodia maydis (Dm); read-out: Concentration at 90% Inhibition Dm, Diplodia maydis, growth inhibition at 48 hours vs 2% DMSO control): 0.08 µg/mL (≈ 0.125 µM); IC90 (Diplodia maydis (Dm); read-out: Concentration at 90% Inhibition Dm, Diplodia maydis, growth inhibition vs 2% DMSO control at 48 hours): 0.08 µg/mL (≈ 0.125 µM); IC90 (Botrtyis cinerea (Bc); read-out: Concentration at 90% Inhibition Bc, Botrtyis cinerea, growth inhibition at 48 hours vs 2% DMSO control): 0.08 µg/mL (≈ 0.125 µM); IC90 (Botrtyis cinerea (Bc); read-out: Concentration at 90% Inhibition Bc, Botrtyis cinerea, growth inhibition vs 2% DMSO control at 48 hours): 0.08 µg/mL (≈ 0.125 µM); IC90 (Rhizoctonia solani (Rs); read-out: Concentration at 90% Inhibition Rs, Rhizoctonia solani, mycelial plugs, growth inhibition at 48 hours vs 2% DMSO control): 0.08 µg/mL (≈ 0.125 µM); IC90 (Rhizoctonia solani (Rs); read-out: Concentration at 90% Inhibition Rs, Rhizoctonia solani, mycelial plugs, growth inhibition vs 2% DMSO control at 48 hours): 0.08 µg/mL (≈ 0.125 µM); MIC (C. albicans; read-out: MIC, C. albicans ATCC 90028, Table 3a, 3 replicates, MIC recorded at 48 h): 0.06 to 0.24 µg/mL (≈ 0.0936 to 0.375 µM); MIC (C. albicans; read-out: MIC, C. albicans ATCC 90028, Table 3b (additional results), 3 replicates, MIC recorded at 48 h): 0.06 to 0.249 µg/mL (≈ 0.0936 to 0.389 µM); IC90 ([1]; read-out: Concentration at 90% Inhibition Fv, Fusarium virguliforme, growth inhibition at 48 hours vs 2% DMSO control): 0.4 µg/mL (≈ 0.624 µM); IC90 ([1]; read-out: Concentration at 90% Inhibition Fv, Fusarium virguliforme, growth inhibition vs 2% DMSO control at 48 hours): 0.4 µg/mL (≈ 0.624 µM); MIC (C. parapsilosis; read-out: MIC, C. parapsilosis ATCC 22019, Table 3a, 3 replicates, MIC recorded at 48 h): 0.25 to 1 µg/mL (≈ 0.39 to 1.56 µM); MIC (C. parapsilosis; read-out: MIC, C. parapsilosis ATCC 22019, Table 3b (additional results), 3 replicates, MIC recorded at 48 h): 0.25 to 1 µg/mL (≈ 0.39 to 1.56 µM); IC90 ([2]; read-out: Concentration at 90% Inhibition Pc, Phytophthora capsici, growth inhibition at 48 hours vs 2% DMSO control): > 50 µg/mL; IC90 ([2]; read-out: Concentration at 90% Inhibition Pc, Phytophthora capsici, growth inhibition vs 2% DMSO control at 48 hours): > 50 µg/mL; MIC (C. krusei; read-out: MIC, C. krusei ATCC 6258, Table 3a, 3 replicates, MIC recorded at 48 h): 0.06 to 0.24 µg/mL (≈ 0.0936 to 0.375 µM); MIC (C. krusei; read-out: MIC, C. krusei ATCC 6258, Table 3b (additional results), 3 replicates, MIC recorded at 48 h): 0.06 to 0.249 µg/mL (≈ 0.0936 to 0.389 µM)
5 | COc1ccc(F)cc1[C@H](Cn1c(=O)n(C(C)(C)C(=O)N2CCCC2)c(=O)c2c(C)c(-n3nccn3)sc21)OC1CCC(=O)CC1 [Compound I-33, (R)-1-(2-(5-fluoro-2-methoxyphenyl)-2-((4-oxocyclo-hexyl)oxy)ethyl)-5-methyl-3-(2-methyl-1-oxo-1-(pyrrolidin-1-yl)propan-2-yl)-6-(2H-1,2,3-triazol-2-yl)thieno[2,3-d]pyrimidine-2,4(1H,3H)-dione] | 0.4 (≈ 0.613 µM) | 0.4 (≈ 0.613 µM) | 0.4 (≈ 0.613 µM) | 0.4 (≈ 0.613 µM) | 0.4 (≈ 0.613 µM) | 0.4 (≈ 0.613 µM) | 10 to 40 | 10 to 40 | 0.25 to 1 (≈ 0.383 to 1.53 µM) | 0.25 to 1 (≈ 0.383 to 1.53 µM) | 0.4 (≈ 0.613 µM) | 0.4 (≈ 0.613 µM) | 0.25 to 1 (≈ 0.383 to 1.53 µM) | 1.01 to 2 (≈ 1.55 to 3.06 µM) | > 50 | > 50 | 0.25 to 1 (≈ 0.383 to 1.53 µM) | 0.25 to 1 (≈ 0.383 to 1.53 µM) | 
